Here are results for two compounds from the NIST ThermoML archive (doi:10.1021/je034107o).

Molecules are shown by their SMILES. ± gives the expanded uncertainty stated by the source.

For this data set the following is noted: Liquid.

As usually defined, the vapor or sublimation pressure is the equilibrium pressure above the liquid or solid. Consider `CCc1ccccc1` [ethylbenzene], for which the “vapor or sublimation pressure” value runs as follows: (498.15 K) 681 ± 37 kPa; (523.15 K) 1027 ± 54 kPa; (553.15 K) 1601 ± 83 kPa; (583.15 K) 2387 ± 120 kPa; (613.15 K) 3451 ± 180 kPa.

As to `c1ccc2ncccc2c1` [quinoline], the “vapor or sublimation pressure” value was determined as 135 ± 8 kPa (523.15 K); 245 ± 13 kPa (553.15 K); 416 ± 22 kPa (583.15 K); 668 ± 35 kPa (613.15 K); 955 ± 49 kPa (638.15 K); 1166 ± 60 kPa (653.15 K).
